According to patent US11236088B2, “Heterocyclic compounds and their application in medicine” (KIND PHARMACEUTICAL, priority 2017, dated 2022):
pIC50: −log10 of the molar value.

What follows are molecules tested on MCF-7 cells (assay: Inhibitory effect on the growth of MCF-7 cells (CellTiter-Glo, 10 days)). Conditions: Homo sapiens, MCF7, 240 h, 10 days incubation, CellTiter-Glo chemiluminescence.
Assay type: cell-based
Method: Assay 2: Inhibitory effect of compounds of the present invention on the growth of MCF-7 cells by a cell drug inhibition experiment
1. Experimental Materials
1) Reagents: DMEM high glucose medium (Lonza #12-604F), FBS (BI #04-00F1ACS), antibiotics (Thermofisher #15070063), bovine insulin (Western reagent #11070-73-8), trypsin (Thermofisher #25200-056), CellTiter-Glo reagent (Promega #G7571)
2) Instruments: American MD-M5 microplate reader 5;
2. Experimental Procedures:
1) 100 μl of MCF-7 cells was added to a medium in a white opaque 96-well plate at a density of 5000 cells/ml in which the medium is DMEM high-glucose medium supplemented with 10% FBS. The cells were cultured in a 5% CO2 cell incubator at 37° C. for 24 hours.
2) Different concentrations of corresponding compounds were added to the 96-well plate for incubating MCF-7 cells. The cells were incubated for 10 days in a 5% CO2 cell incubator.
3) To each well of MCF-7 cells, 100 μl of CellTiter-Glo reagent was added and then set aside at room temperature for 10 minutes. The chemiluminescence signal was read using an MD-M5 microplate reader, and the data was processed using GraphPad Prism to calculate IC50 value.

| pIC50 | SMILES |
| --- | --- |
| 8.00 to 9.00 | CC(C)C[C@H]1[C@H](c2ccc(NC3CN(CCCF)C3)cc2)c2ccc3[nH]ncc3c2CN1C [Example 1, 1-(3-fluoropropyl)-N-(4-((6R, 7S)-7-isobutyl-8-methyl-6,7,8,9-tetrahydro-3H-pyrazolo [3,4-h]isoquinolin-6-yl)phenyl)azetidin-3-amine] |
| ≥ 9.00 | CC(C)C[C@H]1[C@H](c2c(F)cc(NC3CN(CCCF)C3)cc2F)c2ccc3[nH]ncc3c2CN1C [Example 2, N-(3,5-difluoro-4-((6S, 7S)-7-isobutyl-8-methyl-6,7,8,9-tetrahydro-3H-pyrazolo [3,4-h]isoquinolin-6-yl)phenyl)-1-(3-fluoropropyl) azetidin-3-amine] |
| < 6.00 | CC(C)C[C@H]1[C@H](c2c(F)cc(NC3CN(CC(F)CF)C3)cc2F)c2ccc3[nH]ncc3c2CN1C (stereo partly drawn) [Example 3, N-(3,5-difluoro-4-((6S, 7S)-7-isobutyl-8-methyl-6,7,8,9-tetrahydro-3H-pyrazolo [3,4-h]isoquinolin-6-yl)phenyl)-1-(2,3-difluoropropyl) azetidin-3-amine] |
| < 6.00 | CC(C)C[C@H]1[C@H](c2c(F)cc(NC3CN(CCC(F)(F)F)C3)cc2F)c2ccc3[nH]ncc3c2CN1C [Example 4, N-(3,5-difluoro-4-((6S, 7S)-7-isobutyl-8-methyl-6,7,8,9-tetrahydro-3H-pyrazolo [3,4-h]isoquinolin-6-yl)phenyl)-1-(3,3,3-trifluoropropyl) azetidin-3-amine] |
| < 6.00 | CN1Cc2c(ccc3[nH]ncc23)[C@@H](c2c(F)cc(NC3CN(CCCF)C3)cc2F)[C@@H]1CC1CC1 [Example 5, N-(4-((6S, 7S)-7-cyclopropylmethyl-8-methyl-6,7,8,9-tetrahydro-3H-pyrazolo [3,4-h]isoquinolin-6-yl)-3,5-difluorophenyl)-1-(3-fluoropropyl) azetidin-3-amine] |
| < 6.00 | CCCN1CC(Nc2cc(F)c([C@@H]3c4ccc5[nH]ncc5c4CN(C)[C@H]3CC(C)C)c(F)c2)C1 [Example 6, N-(3,5-difluoro-4-((6S, 7S)-7-isobutyl-8-methyl-6,7,8,9-tetrahydro-3H-pyrazolo [3,4-h]isoquinolin-6-yl)phenyl)-1-propylazetidin-3-amine] |
| < 6.00 | CCCCN1CC(Nc2cc(F)c([C@@H]3c4ccc5[nH]ncc5c4CN(C)[C@H]3CC(C)C)c(F)c2)C1 [Example 7, 1-butyl-N-(3,5-difluoro-4-((6S, 7S)-7-isobutyl-8-methyl-6,7,8,9-tetrahydro-3H-pyrazolo [3,4-h]isoquinolin-6-yl)phenyl) azetidin-3-amine] |
| < 6.00 | CC(C)C[C@H]1[C@H](c2c(F)cc(NC3CN(CC(C)C)C3)cc2F)c2ccc3[nH]ncc3c2CN1C [Example 8, N-(3,5-difluoro-4-((6S, 7S)-7-isobutyl-8-methyl-6,7,8,9-tetrahydro-3H-pyrazolo [3,4-h]isoquinolin-6-yl)phenyl)-1-isobutylazetidin-3-amine] |
| < 6.00 | CCCCCN1CC(Nc2cc(F)c([C@@H]3c4ccc5[nH]ncc5c4CN(C)[C@H]3CC(C)C)c(F)c2)C1 [Example 9, N-(3,5-difluoro-4-((6S, 7S)-7-isobutyl-8-methyl-6,7,8,9-tetrahydro-3H-pyrazolo [3,4-h]isoquinolin-6-yl)phenyl)-1-pentylazetidin-3-amine] |
| ≥ 9.00 | CC(C)C[C@H]1[C@H](c2c(F)cc(SC3CN(CCCF)C3)cc2F)c2ccc3[nH]ncc3c2CN1C [Example 10, (6S, 7S)-6-(2,6-difluoro-4-((1-(3-fluoropropyl)azetidin-3-yl)thio)phenyl)-7-isobutyl-8-methyl-6,7,8,9-tetrahydro-3H-pyrazolo [3,4-h]isoquinoline] |
| ≥ 9.00 | CCCN1CC(Sc2cc(F)c([C@@H]3c4ccc5[nH]ncc5c4CN(C)[C@H]3CC(C)C)c(F)c2)C1 [Example 11] |
| 6.00 to 8.00 | CCCCN1CC(Sc2cc(F)c([C@@H]3c4ccc5[nH]ncc5c4CN(C)[C@H]3CC(C)C)c(F)c2)C1 [Example 12, (6S, 7S)-6-(4-((1-butylazetidin-3-yl)thio)-2,6-difluorophenyl)-7-isobutyl-8-methyl-6,7,8,9-tetrahydro-3H-pyrazolo [3,4-h]isoquinoline] |
| 6.00 to 8.00 | CC(C)C[C@H]1[C@H](c2c(F)cc(SC3CN(CC(C)C)C3)cc2F)c2ccc3[nH]ncc3c2CN1C [Example 13, (6S, 7S)-6-(2,6-difluoro-4-((1-isobutylazetidin-3-yl)thio)phenyl)-7-isobutyl-8-methyl-6,7,8,9-tetrahydro-3H-pyrazolo [3,4-h]isoquinoline] |
| < 6.00 | CCCCCN1CC(Sc2cc(F)c([C@@H]3c4ccc5[nH]ncc5c4CN(C)[C@H]3CC(C)C)c(F)c2)C1 [Example 14, (6S, 7S)-6-(2,6-difluoro-4-((1-pentylazetidin-3-yl)thio)phenyl)-7-isobutyl-8-methyl-6,7,8,9-tetrahydro-3H-pyrazolo [3,4-h]isoquinoline] |
| ≥ 9.00 | CC(C)C[C@H]1[C@H](c2c(F)cc(OC3CN(CCCF)C3)cc2F)c2ccc3[nH]ncc3c2CN1C [Example 15, (6S, 7S)-6-(2,6-difluoro-4-((1-(3-fluoropropyl)azetidin-3-yl)oxy)phenyl)-7-isobutyl-8-methyl-6,7,8,9-tetrahydro-3H-pyrazolo [3,4-h]isoquinoline] |
| ≥ 9.00 | CCCN1CC(Oc2cc(F)c([C@@H]3c4ccc5[nH]ncc5c4CN(C)[C@H]3CC(C)C)c(F)c2)C1 [Example 16, (6S, 7S)-6-(2,6-difluoro-4-((1-propylazetidin-3-yl)oxy)phenyl)-7-isobutyl-8-methyl-6,7,8,9-tetrahydro-3H-pyrazolo [3,4-h]isoquinoline] |
| 8.00 to 9.00 | CC(C)C[C@H]1[C@H](c2c(F)cc(OC3CN(CC(C)C)C3)cc2F)c2ccc3[nH]ncc3c2CN1C [Example 17, (6S, 7S)-6-(2,6-difluoro-4-((1-isobutylazetidin-3-yl)oxy)phenyl)-7-isobutyl-8-methyl-6,7,8,9-tetrahydro-3H-pyrazolo [3,4-h]isoquinoline] |
| < 6.00 | CCCCN1CC(Oc2cc(F)c([C@@H]3c4ccc5[nH]ncc5c4CN(C)[C@H]3CC(C)C)c(F)c2)C1 [Example 18] |
| < 6.00 | CCCCCN1CC(Oc2cc(F)c([C@@H]3c4ccc5[nH]ncc5c4CN(C)[C@H]3CC(C)C)c(F)c2)C1 [Example 19] |
| < 6.00 | CN1Cc2c(ccc3[nH]ncc23)[C@@H](c2c(F)cc(OC3CN(CCCF)C3)cc2F)[C@@H]1CC1CC1 [Example 20, (6S, 7S)-7-(cyclopropylmethyl)-6-(2,6-difluoro-4-((1-(3-fluoropropyl)azetidin-3-yl)oxy)phenyl)-8-methyl-6,7,8,9-tetrahydro-3H-pyrazolo [3,4-h]isoquinoline] |
| < 6.00 | CCCN1CC(Oc2cc(F)c([C@@H]3c4ccc5[nH]ncc5c4CN(C)[C@H]3CC3CC3)c(F)c2)C1 [Example 21, (6S, 7S)-7-cyclopropylmethyl-6-(2,6-difluoro-4-((1-propylazetidin-3-yl)oxy)phenyl)-8-methyl-6,7,8,9-tetrahydro-3H-pyrazolo [3,4-h]isoquinoline] |
| < 6.00 | CC(C)CN1CC(Oc2cc(F)c([C@@H]3c4ccc5[nH]ncc5c4CN(C)[C@H]3CC3CC3)c(F)c2)C1 [Example 22, (6S, 7S)-7-cyclopropylmethyl-6-(2,6-difluoro-4-((1-isobutylazetidin-3-yl)oxy)phenyl)-8-methyl-6,7,8,9-tetrahydro-3H-pyrazolo [3,4-h]isoquinoline] |
